± gives the expanded uncertainty stated by the source.
Conditions: Liquid, Closed cell (Static) method

SMILES	vapor or sublimation pressure (345.15 K) [kPa]	vapor or sublimation pressure (350.15 K) [kPa]	vapor or sublimation pressure (355.15 K) [kPa]	vapor or sublimation pressure (360.15 K) [kPa]	vapor or sublimation pressure (365.15 K) [kPa]	vapor or sublimation pressure (320.15 K) [kPa]	also measured
Cc1ccccc1C [1,2-dimethylbenzene]	9.182 ± 0.061	11.27 ± 0.074	13.73 ± 0.081	16.62 ± 0.095	20 ± 0.11		
Cc1cccc(C)c1 [1,3-dimethylbenzene]	11 ± 0.058	13.44 ± 0.07	16.32 ± 0.083	19.68 ± 0.098	23.59 ± 0.1		
Cc1ccc(C)cc1 [1,4-dimethylbenzene]	11.39 ± 0.061	13.9 ± 0.071	16.85 ± 0.085	20.3 ± 0.095	24.3 ± 0.1		
CC(O)COC(C)COC(C)CO (stereo not given) [2-[2-(2-hydroxypropoxy)propoxy]-1-propanol]		0.039 ± 0.006					vapor or sublimation pressure (357.15 K): 0.063 ± 0.016 kPa; vapor or sublimation pressure (364.15 K): 0.098 ± 0.009 kPa; vapor or sublimation pressure (371.15 K): 0.15 ± 0.018 kPa; vapor or sublimation pressure (378.15 K): 0.224 ± 0.009 kPa
CCc1ccccc1 [ethylbenzene]						4.076 ± 0.038	vapor or sublimation pressure (326.15 K): 5.41 ± 0.047 kPa; vapor or sublimation pressure (332.15 K): 7.093 ± 0.052 kPa; vapor or sublimation pressure (338.15 K): 9.194 ± 0.058 kPa; vapor or sublimation pressure (344.15 K): 11.79 ± 0.071 kPa
Cc1ccccc1 [toluene]						10.77 ± 0.052	vapor or sublimation pressure (315.15 K): 8.622 ± 0.044 kPa; vapor or sublimation pressure (325.15 K): 13.34 ± 0.059 kPa; vapor or sublimation pressure (330.15 K): 16.4 ± 0.071 kPa; vapor or sublimation pressure (335.15 K): 20.02 ± 0.08 kPa

Reference: the NIST ThermoML archive (doi:10.1016/j.fluid.2016.05.032)
